Source: patent publication US20210301315A1, “METHODS FOR TREATING POLYMICROBIAL INFECTIONS” (priority 2017, published 2021)
Entries after “also recorded” stand apart in the source; their conditions may differ.

Assays:
[1] = test system: E. coli and S. agalactiae; experiment: P-AST species-pair interaction on antibiotic resistance (logistic regression, HSAP/UP); type: cell-based, Escherichia coli; Streptococcus agalactiae; conditions: E. coli and S. agalactiae together v. expected from each species alone (HSAP/UP)
Protocol: (§1) The Pooled Antibiotic Sensitivity Test (P-AST) is permitting the organisms identified to grow in the presence of antibiotics and measuring the minimum concentration of antibiotic to inhibit growth. Antibiotic susceptibility testing is performed when at least a single organism within a pool of organisms reaches a certain threshold, (e.g., at least 3,000 cells/ml, at least 5,000 cells/ml, at least 10,000 cells/ml, etc.) and can grow in the presence of the antibiotic in the assay within the time of testing. (Note: 10,000 cells/ml is equivalent to 10,000 CFU/ml.) The present invention is not limited to a 10,000 cells/mL threshold. These pools of organism(s) are inoculated into growth medium then placed onto an antibiotic laden “spec plate” that is then incubated and analyzed for growth. The breakpoints are derived from the CLSI breakpoints.
(§2) P-AST was performed by aliquoting 1 mL of patient urine specimen into a 1.7 mL microcentrifuge tube. After centrifugation, the supernatant was aspirated and discarded, leaving approximately 100 or 50 μL (minimum volume left above pellet created from centrifugation) of patient sample in the microcentrifuge tube. One mL of Mueller Hinton Growth Media was then aliquoted into the patient sample in the microcentrifuge tube and the tubes were incubated at 35° C. in a non-CO2 incubator for 6 hours. Non-inoculated liquid MH-media is incubated as the negative control to confirm the media used is not contaminated. Those samples that reached a minimum threshold of 10,000 cells/mL were then diluted by aliquoting 0.5 mL of sample into a 50 mL conical tube containing Mueller Hinton Growth Media (in this example, the dilution was 1:60, e.g., 500 μL was added to 29.5 mL). 96-well plates pre-loaded with antibiotics were then inoculated with diluted samples and incubated along with control plates for 12-16 hours at 35° C. in a single layer. Optical density of samples was then read on a DensiCHEK plate reader. The DensiCHEK instrument is used to measure the concentration of turbid samples considered positive because PCR-ID result was >=10,000 cells/mL. The turbid samples were diluted/normalized to the same concentration and then added to a volume of liquid, e.g., 29.5 mL of liquid MH-media. A spectrophotometer (plate reader) is used to measure optical density of the samples in wells of antibiotics and inoculum in order to determine if there is growth in a well. The present invention is not limited to a concentration of 10,000 cells/mL.
(§3) Interactions between pairs of bacterial species were investigated using a logistic regression model to predict resistance in the presence of specific bacterial species. Bacterial species that tested positive in at least 30 samples were considered in the regression model: these 16 species were A. schaalii, A. urinae, A. omnicolens, CoNS, C. riegelii, E. faecalis, E. coli, K. oxytoca, K. pneumoniae, M. morganii, P. mirabilis, P. aeruginosa, S. aureus, S. agalactiae, U. urealyticum, VGS. Backward stepwise model selection was performed on the model with all main effects and all pairwise interactions using an enter significance level of α=0.10 and an exit significance level of α=0.05 to obtain the best fitting model. This model was used to predict resistance rates when a specific organism was present or when a specific pair of organisms were present.
(§4) Using the logistic regression model described above, the resistance rate for a pair of species was compared to the resistance rates for each species alone. […]

[2] = test system: bacterial organisms present in patient urine sample; experiment: Antibiotic Resistance (ABR) assay utilizing liquid growth medium; type: cell-based; conditions: for Blanked (OD reading): blanked with Na-Azide well; for Mean (OD reading): raw OD600 of well; for Result (Resistant/Sensitive): threshold OD600 of 0.065
Protocol: Urine samples suitable for processing with this assay are collected, transported, and stored using BD Vacutainer tubes or other suitable leak-proof sterile containers. Urine samples may be held at room temperature for 48 hours before test results are compromised.
Antibiotic stocks are stored at 2-8° C. and protected from direct sunlight. Prepared antibiotic stock solutions were aliquoted into a 96-deep well plate (ThermoFisher Scientific) to form a 50× Antibiotic Source Plate and then diluted 1:5 to form a 10× Antibiotic Source Plate, as shown in FIG. 12 where each well is identified by antibiotic name and concentration (μg/mL; 10× final concentration). […] One well was assigned sodium azide to ensure no bacterial growth would be observed in that well.
Twenty microliters of each antibiotic solution were aliquoted into the pre-determined wells of a 96-well microplate (VIS 96/F-PS, Eppendorf) from the 10× Antibiotic Source Plate to create ABR testing plates for inoculation. These ABR testing plates were allowed to sit for up to 24 hours before use at 2-8° C. in the dark.
At the time of testing, urine samples were centrifuged to concentrate any bacterial cells and then mixed with liquid Mueller-Hinton medium and incubated for 6-16 hours at 37° C. After this initial incubation, the sample is diluted to 0.5-0.6 McF in saline and then 500 μl of that suspension was added to […] of Mueller-Hinton medium. One-hundred and eighty microliters of the diluted sample is then aliquoted to each well of the ABR microplate already containing 10× antibiotic solution, bringing all of the antibiotics to the desired final concentration. The plate is then sealed and incubated for 12-16 hours at 37° C.
After incubation, the plate was removed from the incubator and carefully uncovered and the OD600 was determined for each appropriate well by spectrophotometer. Five separate measurements were taken of each well on a plate and the mean OD600 measurement calculated for each well.
Controls are depicted in Table 10.
The raw data was then “blanked” using the measurement obtained from the Na-Azide well, as depicted in Table 14.
To determine whether bacterial organisms present in the patient samples were resistant or sensitive to a particular antibiotic at a certain concentration, blanked OD readings were compared to a threshold OD600 of 0.065 (Table 15). An OD measurement greater than or equal to this threshold was designated Resistant (R) meaning bacterial organisms present in patient sample were resistant to that particular antibiotic at that certain concentration. Any OD measurement less than this threshold was designated Sensitive (S) meaning bacterial organisms present in patient sample were sensitive to that particular antibiotic at that certain concentration.

E. coli and K. oxytoca = experiment: P-AST species-pair interaction on antibiotic resistance (logistic regression, HSAP/UP); type: cell-based, Escherichia coli; Klebsiella oxytoca; conditions: E. coli and K. oxytoca together v. expected from each species alone (HSAP/UP)
Protocol: as §1
(§5) P-AST was performed by aliquoting 1 mL of patient urine specimen into a 1.7 mL microcentrifuge tube. After centrifugation, the supernatant was aspirated and discarded, leaving approximately 100 or 50 μL (minimum volume left above pellet created from centrifugation) of patient sample in the microcentrifuge tube. […] Optical density of samples was then read on a DensiCHEK plate reader. […] A spectrophotometer (plate reader) is used to measure optical density of the samples in wells of antibiotics and inoculum in order to determine if there is growth in a well. […]

E. coli and P. mirabilis = experiment: as above; type: cell-based, Escherichia coli; Proteus mirabilis; conditions: E. coli and P. mirabilis together v. expected from each species alone (HSAP/UP)
Protocol: as §1, §2, §3, §4

[3] = test system: E. coli and K. pneumoniae; experiment: as above; type: cell-based, Escherichia coli; Klebsiella pneumoniae
Protocol: as §1, §5

[4] = test system: Coagulase-negative Staphylococcus (CoNS) and S. agalactiae; conditions: CoNS and S. agalactiae together v. expected from each species alone (HSAP/UP)
Protocol: (§6) The Pooled Antibiotic Sensitivity Test (P-AST) is permitting the organisms identified to grow in the presence of antibiotics and measuring the minimum concentration of antibiotic to inhibit growth. Antibiotic susceptibility testing is performed when at least a single organism within a pool of organisms reaches a certain threshold, (e.g., at least 3,000 cells/ml, at least 5,000 cells/ml, at least 10,000 cells/ml, etc.) and can grow in the presence of the antibiotic in the assay within the time of testing. […] These pools of organism(s) are inoculated into growth medium then placed onto an antibiotic laden “spec plate” that is then incubated and analyzed for growth. The breakpoints are derived from the CLSI breakpoints.
P-AST was performed by aliquoting 1 mL of patient urine specimen into a 1.7 mL microcentrifuge tube. After centrifugation, the supernatant was aspirated and discarded, leaving approximately 100 or 50 μL (minimum volume left above pellet created from centrifugation) of patient sample in the microcentrifuge tube. One mL of Mueller Hinton Growth Media was then aliquoted into the patient sample in the microcentrifuge tube and the tubes were incubated at 35° C. in a non-CO2 incubator for 6 hours. […] Those samples that reached a minimum threshold of 10,000 cells/mL were then diluted by aliquoting 0.5 mL of sample into a 50 mL conical tube containing Mueller Hinton Growth Media (in this example, the dilution was 1:60, e.g., 500 μL was added to 29.5 mL). 96-well plates pre-loaded with antibiotics were then inoculated with diluted samples and incubated along with control plates for 12-16 hours at 35° C. in a single layer. Optical density of samples was then read on a DensiCHEK plate reader. The DensiCHEK instrument is used to measure the concentration of turbid samples considered positive because PCR-ID result was >=10,000 cells/mL. The turbid samples were diluted/normalized to the same concentration and then added to a volume of liquid, e.g., 29.5 mL of liquid MH-media. A spectrophotometer (plate reader) is used to measure optical density of the samples in wells of antibiotics and inoculum in order to determine if there is growth in a well.
Interactions between pairs of bacterial species were investigated using a logistic regression model to predict resistance in the presence of specific bacterial species. Bacterial species that tested positive in at least 30 samples were considered in the regression model: these 16 species were A. schaalii, A. urinae, A. omnicolens, CoNS, C. riegelii, E. faecalis, E. coli, K. oxytoca, K. pneumoniae, M. morganii, P. mirabilis, P. aeruginosa, S. aureus, S. agalactiae, U. urealyticum, VGS. […]

[5] = test system: Coagulase-negative Staphylococcus (CoNS) and K. pneumoniae; experiment: P-AST species-pair interaction on antibiotic resistance (logistic regression, HSAP/UP); type: cell-based, Coagulase negative staphylococci; Klebsiella pneumoniae; conditions: CoNS and K. pneumoniae together v. expected from each species alone (HSAP/UP)
Protocol: as §1, §2
Interactions between pairs of bacterial species were investigated using a logistic regression model to predict resistance in the presence of specific bacterial species. […]

[6] = test system: bacteria detected in patient urine specimens; experiment: Pooled Antibiotic Susceptibility Testing (P-AST) of urine specimens, polymicrobial v. monomicrobial (logistic regression); type: cell-based; conditions: urine specimens, 95% confidence interval in parentheses
Text: The present invention describes Pooled Antibiotic Susceptibility Testing (P-AST), which involves simultaneously growing all detected bacteria together in the presence of antibiotics and then measuring susceptibility. […] Urine specimens were obtained from patients presenting with UTI-like symptoms to 37 urology clinics. The odds of resistance were estimated for 18 antibiotics relative to increasing numbers of bacterial species in a specimen.
The following study combines data from two studies of antibiotic resistance patterns in elderly patients presenting with symptoms consistent with a UTI. […] All subjects met the following inclusion and exclusion criteria. Inclusion criteria included: symptoms of acute cystitis, complicated UTI, persistent UTI, recurrent UTI, prostatitis, pyelonephritis, interstitial cystitis (at any age), symptoms of other conditions at years of age, specimen volumes sufficient to permit urine culture and Multiplex Polymerase Chain Reaction (M-PCR) combined with Pooled Antibiotic Sensitivity Testing (P-AST), patient informed consented, documented times at which the specimens were collected and stabilized with boric acid in grey-top tubes. Exclusion criteria included prior participation in this study, antibiotics taken for any reason other than UTI at the time of enrollment, chronic (≥10 days) indwelling catheters, self-catheterization, and urinary diversion.
as §6

[7] = test system: Coagulase-negative Staphylococcus (CoNS) and E. faecalis; experiment: P-AST species-pair interaction on antibiotic resistance (logistic regression, HSAP/UP); type: cell-based, Coagulase negative staphylococci; Enterococcus faecalis; conditions: CoNS and E. faecalis together v. expected from each species alone (HSAP/UP)
Protocol: as §1, §5

[8] = antibiotic 1 μg/mL, liquid medium
[9] = antibiotic 2 μg/mL, liquid medium
[10] = antibiotic 4 μg/mL, liquid medium
[11] = antibiotic 8 μg/mL, liquid medium
[12] = antibiotic 16 μg/mL, liquid medium
[13] = antibiotic 32 μg/mL, liquid medium

Row | Compound | change in antibiotic resistance of the pair of organisms [1] | Blanked (OD600 minus Na-Azide well) [2, 9] | Mean (OD600) [2, 9] | Blanked (OD600 minus Na-Azide well) [2, 10] | Mean (OD600) [2, 10] | Blanked (OD600 minus Na-Azide well) [2, 11] | Mean (OD600) [2, 11] | Blanked (OD600 minus Na-Azide well) [2, 12] | Mean (OD600) [2, 12] | Blanked (OD600 minus Na-Azide well) [2, 13] | Mean (OD600) [2, 13] | change in antibiotic resistance of the pair of organisms (E. coli and P. mirabilis) | other results
1 | CO/N=C(\C(=O)N[C@@H]1C(=O)N2C(C(=O)[O-])=C(C[N+]3(C)CCCC3)CS[C@H]12)c1csc(N)n1 [Cefepime, cefepime] | decrease in resistance; also recorded: decreased odds of resistance | 0.1970 | 0.2427 | 0.1960 | 0.2417 | 0.1947 | 0.2404 | 0.1866 | 0.2323 | 0.1824 | 0.2281 | – | Blanked (OD600 minus Na-Azide well) [2, 8]: 0.1959; Mean (OD600) [2, 8]: 0.2416; change in antibiotic resistance of the pair of organisms (E. coli and K. oxytoca): decrease in resistance; also recorded: decreased odds of resistance
2 | N[C@@H](C(=O)N[C@@H]1C(=O)N2C(C(=O)O)=C(Cl)CS[C@H]12)c1ccccc1 [Cefaclor, cefaclor] | – | – | – | – | – | 0.1875 | 0.2332 | – | – | 0.0143 | 0.0600 | decrease in resistance; also recorded: decreased odds of resistance | change in antibiotic resistance of the pair of organisms ([3]; E. coli and K. pneumoniae together v. expected from each species alone (HSAP/UP)): increased odds of resistance; also recorded: higher resistance; also recorded: increased the probability of antibiotic resistance; also recorded: increase in resistance; resistance rate of the combination compared with each species alone ([3]; predicted probabilities, FIG. 1, HSAP model): higher than either E. coli or K. pneumoniae alone
3 | gentamicin | – | – | – | 0.0158 | 0.0615 | – | – | −0.0031 | 0.0426 | – | – | – | change in antibiotic resistance of the pair of organisms [4]: decrease in resistance; also recorded: decreased odds of resistance; Blanked (OD reading) ([2]; antibiotic concentration 4): 0.0158; Mean (OD reading) ([2]; antibiotic concentration 4): 0.0615; Result (Resistant/Sensitive) ([2]; antibiotic concentration 4): S (Any OD measurement less than this threshold was designated Sensitive (S)); Blanked (OD reading) ([2]; antibiotic concentration 16): −0.0031; Mean (OD reading) ([2]; antibiotic concentration 16): 0.0426; Result (Resistant/Sensitive) ([2]; antibiotic concentration 16): S (Any OD measurement less than this threshold was designated Sensitive (S)); overall sensitivity of the bacteria in the sample to the antibiotic (in words) ([2]; liquid medium, Example 4 sample): sensitive; change in antibiotic resistance of the pair of organisms [5]: decrease in resistance; also recorded: decreased odds of resistance; Odds Ratio of Resistance Polymicrobial v. Monomicrobial [6]: 1.17 (0.90, 1.51); Odds Ratio of Resistance for Each Additional Species [6]: 1.01 (0.92, 1.11); change in antibiotic resistance of the pair of organisms [7]: decrease in resistance; also recorded: decreased odds of resistance
4 | Cc1nnc(SCC2=C(C(=O)O)N3C(=O)[C@@H](NC(=O)Cn4cnnn4)[C@H]3SC2)s1 [Cefazolin, cefazolin] | – | 0.1882 | 0.2339 | – | – | 0.1633 | 0.2090 | 0.1011 | 0.1468 | 0.0113 | 0.0570 | decrease in resistance; also recorded: decreased odds of resistance | –
5 | CC(C)(O/N=C(\C(=O)N[C@@H]1C(=O)N2C(C(=O)[O-])=C(C[n+]3ccccc3)CS[C@H]12)c1csc(N)n1)C(=O)O [Ceftazidime, ceftazidime] | decrease in resistance; also recorded: decreased odds of resistance | – | – | 0.2000 | 0.2457 | 0.2150 | 0.2607 | 0.2016 | 0.2473 | 0.1980 | 0.2437 | decrease in resistance; also recorded: decreased odds of resistance | –
